This is an account of results in US20050095663A1, “Process for screening fungitoxic compounds” (priority 2002, published 2005).

Test [1] deals with Saccharomyces cerevisiae (strain X2180-1A). Briefly: Effect of fatty acids on fungitoxicity (growth inhibition, absorbance at 700 nm). The following applies: 22 h. Format: cell-based. How it is done: Fifty ml of YPG culture medium (10 g yeast extract, 20 g peptone, and 20 g glucose per liter of water) in a 250 ml Erlenmeyer flask was inoculated with Saccharomyces cereviae (strain X2180-1A) to give an absorbance at 700 nm of 0.02. This culture was incubated for 18 h at 30° C. with shaking at 225 rpm. The cells were harvested by centrifugation, washed once with SD medium (6.7 g Bacto-yeast nitrogen base and 20 g glucose per liter of water), and suspended in SD medium to give an Absorbance at 700 nm of 0.04. Aliquots (5 ml) of cell suspension were distributed in 20 ml capacity glass vials. Treatments containing compound 1 or cerulenin received 25 μl of a solution of compound in dimethylsulfoxide (DMSO) at 240 ppm or 160 ppm, respectively. Control treatments without compound 1 or cerulenin received 25 ul DMSO. Treatments containing a fatty acid received 25 μl of a 2 mM solution of the fatty acid in a 1% solution of Triton X-100 providing a concentration of 10 μM. Treatments without fatty acid received 25 ul of 1% Triton X-100. All treatments were carried out in duplicate. Vials were incubated for 22 h at 30° C. with shaking at 225 rpm. Growth of the cells was then estimated by diluting the cells in each treatment 3-fold with SD medium and measuring the asorbance at 700 nm. The results in Table 3 show inhibition of growth expressed as a percentage of growth in DMSO controls containing Triton X-100 but lacking Compound 1, cerulenin or fatty acid.

In test [2] the test system is Candida albicans (American Type Culture Collection strain 10231). Kind of test: Control of Candida albicans infection in mice. The format is in vivo. The following applies: 10 mg/kg, mortality over 10 days. How it is done: Compound 1 (6-(4-chlorophenyl)-2-(2′-pentynyl)pyridazinone, described as compound 109 in European Patent Publication No. EP 478 195 A1) in 5% dimethylsulfoxide (DMSO) in saline solution was administered intraperitoneally 1 h before and at 4, 24, 48 and 72 h after intravenous inoculation with Candida albicans (American Type Culture Collection strain 10231). Ten mice were used for each treatment. Mortality was recorded over a period of 10 days.

Like-named read-outs stand apart in the source and are kept apart here.

Turning to `C/C=C/C/C=C/CCC(=O)[C@H]1O[C@H]1C(N)=O` [Cerulenin, cerulenin, reference compound], the inhibition at 0.8 ppm turned out to be 35.6% in test [1] (read-out: % Inhibition of growth, 0.8 ppm, no fatty acid, 22 h); 3.3% in test [1] (read-out: % Inhibition of growth, 0.8 ppm, oleic acid 10 μM, 22 h); 15.2% in test [1] (read-out: % Inhibition of growth, 0.8 ppm, palmitic acid 10 μM, 22 h); 4.5% in test [1] (read-out: % Inhibition of growth, 0.8 ppm, palmitoleic acid 10 μM, 22 h); 20.3% in test [1] (read-out: % Inhibition of growth, 0.8 ppm, pentadecanoic acid 10 μM, 22 h).

On to `C[C@@H]1[C@H](O)[C@@H](C)/C=C/C=C/C=C/C=C/C=C/C=C/C=C/[C@H](O[C@@H]2O[C@H](C)[C@@H](O)[C@H](N)[C@@H]2O)C[C@@H]2O[C@](O)(C[C@@H](O)C[C@@H](O)[C@H](O)CC[C@@H](O)C[C@@H](O)CC(=O)O[C@H]1C)C[C@H](O)[C@H]2C(=O)O` [Amphotericin B, reference compound], for which, in test [2], the “% Survival” value was 100%.

Broadly, the inhibition is the share of the control response that was lost under treatment.
